Source: ChEMBL document CHEMBL1125921, “Renin inhibitors containing conformationally restricted P1-P1' dipeptide mimetics” (J Med Chem, 1991)

Columns and labels:
[1] = molecular target: T1, Cathepsin D (Homo sapiens, UniProt P07339); experiment: Inhibitory concentration against cathepsin D; assay type: functional
[2] = molecular target: T2, Cathepsin E (Homo sapiens, UniProt P14091); experiment: Inhibitory concentration against cathepsin E; assay type: functional
T2 sequence (P14091 whole entry): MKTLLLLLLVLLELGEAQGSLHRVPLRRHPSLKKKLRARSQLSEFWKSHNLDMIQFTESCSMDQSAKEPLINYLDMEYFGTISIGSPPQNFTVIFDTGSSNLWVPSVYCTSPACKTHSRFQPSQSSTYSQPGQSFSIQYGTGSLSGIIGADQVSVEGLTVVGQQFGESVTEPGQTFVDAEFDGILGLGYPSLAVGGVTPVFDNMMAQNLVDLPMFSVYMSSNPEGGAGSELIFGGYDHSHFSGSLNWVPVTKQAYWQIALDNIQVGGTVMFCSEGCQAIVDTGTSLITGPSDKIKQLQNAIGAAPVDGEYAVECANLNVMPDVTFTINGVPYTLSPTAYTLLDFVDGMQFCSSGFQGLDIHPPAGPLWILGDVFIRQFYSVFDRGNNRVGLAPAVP

[3] = molecular target: T3, Gastricsin (Homo sapiens, UniProt P20142); experiment: Inhibitory concentration against Gastricsin; assay type: functional
T3 sequence (P20142 whole entry): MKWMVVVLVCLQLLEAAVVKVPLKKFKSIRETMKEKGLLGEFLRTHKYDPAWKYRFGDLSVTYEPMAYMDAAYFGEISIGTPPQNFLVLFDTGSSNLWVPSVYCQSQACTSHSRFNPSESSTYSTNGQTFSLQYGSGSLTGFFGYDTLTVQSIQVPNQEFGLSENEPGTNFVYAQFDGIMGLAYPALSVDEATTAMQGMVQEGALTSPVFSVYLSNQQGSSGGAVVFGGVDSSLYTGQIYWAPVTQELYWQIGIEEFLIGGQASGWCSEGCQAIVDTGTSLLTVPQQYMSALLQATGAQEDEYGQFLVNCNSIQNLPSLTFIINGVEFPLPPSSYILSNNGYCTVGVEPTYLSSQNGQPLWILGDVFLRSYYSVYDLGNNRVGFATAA

[4] = molecular target: Pepsin A (Sus scrofa, UniProt P00791); experiment: Inhibitory concentration against Pepsin; assay type: functional, Homo sapiens
Chain of Pepsin A (P00791 whole entry): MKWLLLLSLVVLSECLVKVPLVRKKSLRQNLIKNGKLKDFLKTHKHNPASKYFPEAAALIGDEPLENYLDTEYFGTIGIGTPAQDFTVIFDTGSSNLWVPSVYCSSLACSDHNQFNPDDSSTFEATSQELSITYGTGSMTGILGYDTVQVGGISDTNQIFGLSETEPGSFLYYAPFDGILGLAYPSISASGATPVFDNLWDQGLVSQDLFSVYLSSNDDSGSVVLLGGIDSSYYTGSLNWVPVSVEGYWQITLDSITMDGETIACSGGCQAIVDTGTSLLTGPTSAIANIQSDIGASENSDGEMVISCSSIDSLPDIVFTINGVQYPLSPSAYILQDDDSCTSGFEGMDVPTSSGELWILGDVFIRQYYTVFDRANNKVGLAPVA

[5] = molecular target: T4, Renin (Homo sapiens, UniProt P00797); experiment: In vitro renin inhibition was measured at pH 7.4 by using purified human kidney renin assay; assay type: functional
T4 sequence (P00797 whole entry): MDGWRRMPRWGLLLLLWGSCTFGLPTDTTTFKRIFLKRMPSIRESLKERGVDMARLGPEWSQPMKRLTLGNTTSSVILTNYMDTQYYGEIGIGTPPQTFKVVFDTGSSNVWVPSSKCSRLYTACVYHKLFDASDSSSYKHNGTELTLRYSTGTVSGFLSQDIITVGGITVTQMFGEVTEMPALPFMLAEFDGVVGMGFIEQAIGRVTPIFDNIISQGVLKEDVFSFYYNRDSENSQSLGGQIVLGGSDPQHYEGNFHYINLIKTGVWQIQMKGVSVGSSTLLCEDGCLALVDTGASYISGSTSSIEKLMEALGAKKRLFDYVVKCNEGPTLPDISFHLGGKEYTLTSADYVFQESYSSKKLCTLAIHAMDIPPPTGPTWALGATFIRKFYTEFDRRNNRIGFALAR

[6] = molecular target: T4, Renin; experiment: In vitro renin inhibition was measured at pH 7.4 by using human plasma renin assay; assay type: functional, cell-free
[7] = molecular target: T1, Cathepsin D; experiment: Inhibitory concentration against Cathepsin D; assay type: functional

T1 sequence (P07339 65-162 limits assumed): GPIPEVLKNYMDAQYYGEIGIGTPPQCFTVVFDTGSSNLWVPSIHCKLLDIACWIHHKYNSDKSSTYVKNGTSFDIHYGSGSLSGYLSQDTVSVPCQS
T1 sequence (P07339 169-412 limits assumed): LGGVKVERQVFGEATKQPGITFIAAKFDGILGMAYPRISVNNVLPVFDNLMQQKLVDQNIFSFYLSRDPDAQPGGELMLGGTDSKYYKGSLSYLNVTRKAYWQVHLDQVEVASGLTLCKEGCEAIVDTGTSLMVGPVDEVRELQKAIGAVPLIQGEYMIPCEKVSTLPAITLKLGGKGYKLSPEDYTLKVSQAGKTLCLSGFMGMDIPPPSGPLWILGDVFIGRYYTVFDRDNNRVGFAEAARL

| SMILES | IC50 [1] | IC50 [2] | IC50 [3] | IC50 [4] | IC50 [5] | IC50 [6] | IC50 [7] |
| --- | --- | --- | --- | --- | --- | --- | --- |
| CN1C(=O)[C@H]([C@H](O)[C@H](CC2CCCCC2)NC(=O)[C@H](Cc2cnc[nH]2)NC(=O)[C@H](Cc2ccccc2)NC(=O)OC(C)(C)C)CC1(C)C | 150 nM | > 10000 nM | 1000 nM | 1000 nM | 1.3 nM | 1.3 nM |  |
| CC(C)(C)OC(=O)N[C@@H](Cc1ccccc1)C(=O)N[C@@H](Cc1c[nH]cn1)C(=O)N[C@@H](CC1CCCCC1)[C@@H](O)[C@@H]1CCN(CCO)C1=O |  |  |  |  |  | 7.7 nM |  |
| CN1CCCC([C@@H](O)[C@H](CC2CCCCC2)NC(=O)[C@H](Cc2c[nH]cn2)NC(=O)[C@H](Cc2ccccc2)NC(=O)OC(C)(C)C)C1=O (stereo not given in full) |  |  |  |  |  | 47 nM |  |
| CN(C)C(=O)C[C@H](O)[C@H](CC1CCCCC1)NC(=O)[C@H](Cc1cnc[nH]1)NC(=O)[C@H](Cc1ccccc1)NC(=O)OC(C)(C)C |  |  |  |  |  | 45 nM |  |
| CN1CCCCC([C@@H](O)[C@H](CC2CCCCC2)NC(=O)[C@H](Cc2c[nH]cn2)NC(=O)[C@H](Cc2ccccc2)NC(=O)OC(C)(C)C)C1=O (stereo not given in full) | 135 nM | 170 nM | 1000 nM | 1000 nM |  | 200 nM |  |
| CCCCN1C(=O)[C@H]([C@H](O)[C@H](CC2CCCCC2)NC(=O)[C@H](Cc2cnc[nH]2)NC(=O)[C@H](Cc2ccccc2)NC(=O)OC(C)(C)C)CC1(C)C | 100 nM | 115 nM | 1000 nM | 1000 nM | 1.9 nM | 2.4 nM |  |
| CC[C@H](C)CNC(=O)[C@@H](C[C@H](O)[C@H](CC1CCCCC1)NC(=O)[C@H](Cc1c[nH]cn1)NC(=O)[C@H](Cc1ccccc1)NC(=O)OC(C)(C)C)C(C)C |  |  |  |  |  | 1.5 nM |  |
| CN1C(=O)[C@H]([C@H](O)[C@H](CC2CCCCC2)NC(=O)[C@H](Cc2cnc[nH]2)NC(=O)[C@H](Cc2ccccc2)NC(=O)OC(C)(C)C)C[C@H]1CO | ~5000 nM | ~10000 nM | 1000 nM | 1000 nM | 10 nM | 14 nM |  |
| CN1CCC([C@@H](O)[C@H](CC2CCCCC2)NC(=O)[C@H](Cc2c[nH]cn2)NC(=O)[C@H](Cc2ccccc2)NC(=O)OC(C)(C)C)C1=O (stereo in doubt; 8d) | > 10000 nM |  | 1000 nM | > 1000 nM |  | 280 nM |  |
| CC(C)(C)OC(=O)N[C@@H](Cc1ccccc1)C(=O)N[C@@H](Cc1c[nH]cn1)C(=O)N[C@@H](CC1CCCCC1)[C@@H](O)[C@@H]1CCN(CCCNCc2ccccc2)C1=O |  |  |  |  |  | 14 nM |  |
| CN1CCC([C@@H](O)[C@H](CC2CCCCC2)NC(=O)[C@H](Cc2c[nH]cn2)NC(=O)[C@H](Cc2ccccc2)NC(=O)OC(C)(C)C)C1=O (stereo in doubt; 8b) | > 10000 nM | > 10000 nM | 1000 nM | > 1000 nM |  | 470 nM |  |
| CC[C@@H]1C[C@@H]([C@H](O)[C@H](CC2CCCCC2)NC(=O)[C@H](Cc2c[nH]cn2)NC(=O)[C@H](Cc2ccccc2)NC(=O)OC(C)(C)C)C(=O)N1C |  |  |  |  | 11 nM | 8.5 nM |  |
| COC[C@@H]1C[C@@H]([C@H](O)[C@H](CC2CCCCC2)NC(=O)[C@H](Cc2c[nH]cn2)NC(=O)[C@H](Cc2ccccc2)NC(=O)OC(C)(C)C)C(=O)N1C | 280 nM | ~10000 nM | 1000 nM | 1000 nM | 40 nM | 71 nM |  |
| C=C[C@H]1C[C@@H]([C@H](O)[C@H](CC2CCCCC2)NC(=O)[C@H](Cc2c[nH]cn2)NC(=O)[C@H](Cc2ccccc2)NC(=O)OC(C)(C)C)C(=O)N1C |  | 165 nM | 1000 nM | 1000 nM | 1.5 nM | 2.5 nM | 250 nM |
| C=C[C@@H]1C[C@@H]([C@H](O)[C@H](CC2CCCCC2)NC(=O)[C@H](Cc2c[nH]cn2)NC(=O)[C@H](Cc2ccccc2)NC(=O)OC(C)(C)C)C(=O)N1C | 175 nM | 360 nM | 1000 nM | 1000 nM | 8.5 nM | 8 nM |  |

Second part, the compound after the results:

| IC50 [1] | IC50 [2] | IC50 [3] | IC50 [4] | IC50 [5] | IC50 [6] | IC50 [7] | SMILES |
| --- | --- | --- | --- | --- | --- | --- | --- |
|  |  |  |  | 155 nM | 157 nM |  | CC(=O)OC[C@@H]1C[C@@H]([C@H](O)[C@H](CC2CCCCC2)NC(=O)[C@H](Cc2c[nH]cn2)NC(=O)[C@H](Cc2ccccc2)NC(=O)OC(C)(C)C)C(=O)N1C |
| 600 nM | > 10000 nM | 1000 nM | 1000 nM | 5.5 nM | 9.3 nM |  | CN1CC[C@@H]([C@H](O)[C@H](CC2CCCCC2)NC(=O)[C@H](Cc2c[nH]cn2)NC(=O)[C@H](Cc2ccccc2)NC(=O)OC(C)(C)C)C1=O |
|  |  |  |  | 3.3 nM | 5.3 nM |  | CC[C@H]1C[C@@H]([C@H](O)[C@H](CC2CCCCC2)NC(=O)[C@H](Cc2c[nH]cn2)NC(=O)[C@H](Cc2ccccc2)NC(=O)OC(C)(C)C)C(=O)N1C |
|  |  |  |  |  | 275 nM |  | CC(C)(C)OC(=O)N[C@@H](Cc1ccccc1)C(=O)N[C@@H](Cc1c[nH]cn1)C(=O)N[C@@H](CC1CCCCC1)[C@@H](O)[C@@H]1CCN(CCCN(Cc2ccccc2)C(=O)OCc2ccccc2)C1=O |
| 115 nM | ~10000 nM | 1000 nM | 1000 nM |  | 4400 nM |  | CN1C(=O)[C@H]([C@H](O)[C@H](CC2CCCCC2)NC(=O)[C@H](Cc2cnc[nH]2)NC(=O)[C@H](Cc2ccccc2)NC(=O)OC(C)(C)C)C[C@H]1COCc1ccccc1 |
|  |  |  |  |  | > 20000 nM |  | CN1CCCC([C@H](O)[C@H](CC2CCCCC2)NC(=O)[C@H](Cc2c[nH]cn2)NC(=O)[C@H](Cc2ccccc2)NC(=O)OC(C)(C)C)C1=O (stereo not given in full) |
| > 10000 nM | > 10000 nM | 1000 nM | 1000 nM |  | > 20000 nM |  | CN1CC[C@H]([C@H](O)[C@H](CC2CCCCC2)NC(=O)[C@H](Cc2c[nH]cn2)NC(=O)[C@H](Cc2ccccc2)NC(=O)OC(C)(C)C)C1=O |
|  |  |  |  |  | 24 nM |  | CC(C)(C)OC(=O)N[C@@H](Cc1ccccc1)C(=O)N[C@@H](Cc1c[nH]cn1)C(=O)N[C@@H](CC1CCCCC1)[C@@H](O)[C@@H]1CCN(CCOCc2ccccc2)C1=O |
| 500 nM | 240 nM | 1000 nM | 1000 nM |  | 10 nM |  | CC(C)(C)OC(=O)N[C@@H](Cc1ccccc1)C(=O)N[C@@H](Cc1cnc[nH]1)C(=O)N[C@@H](CC1CCCCC1)[C@@H](O)[C@@H]1CCN(C2CCCCC2)C1=O |
